Earlier results on 26 compounds are cited in US5872104A, “Combinations and methods for reducing antimicrobial resistance” (Oridigm Corporation, priority 1994, dated 1999).

pKi: −log10 of the molar value. In brackets after ≈: the same amount, converted by molar mass. Counter-ions that a name gives are not always drawn. Like-named read-outs stand apart in the source and are kept apart here.

One data set concerns SAM synthetase. As to conditions: cited from earlier work.
For the next data set, the system named is glutathione. The settings on record: ip.; 4.5 mmol/kg buthionine sulfoximine and […] diethyl maleate; cited from earlier work.
Another data set has as its system rRNA of S. cerevisiae. As to conditions: cited from earlier work.
The subject of data set [1] is mature rRNA in Novikoff hepatoma cells. The settings on record: cited from earlier work.
Another data set deals with bovine liver SAHH. As to conditions: 0.2 mM; cited from earlier work.
Data set [2] has as its system E. coli glutathione synthetase. As to conditions: cited from earlier work.
Data set [3] relates to methylation reactions in peripheral blood monocytes. The settings on record: cited from earlier work.
For a further data set, the system named is SAH in hepatocytes. As to conditions: cited from earlier work.
The target in data set [4] is ornithine decarboxylase (ODC). As to conditions: cited from earlier work.
The test system of another data set is Dictyostelium discoideum. As to conditions: 5 mM, four hours; cited from earlier work.
In another data set the test system is Trypanosomiasis. The settings on record: cited from earlier work.
Data set [5] deals with tRNA methylases isolated from E. coli. As to conditions: cited from earlier work.
A further data set has as its system tRNA methylases. The settings on record: cited from earlier work.
In a further data set the test system is Mycoplasma pneumoniae. The settings on record: cited from earlier work.
The next data set relates to Staphylococcus aureus. As to conditions: cited from earlier work.
In a further data set the test system is Mycoplasma hominis. As to conditions: cited from earlier work.
Another data set has as its system Ureaplasma urealyticum. As to conditions: cited from earlier work.
For a further data set, the system named is RNA methylation. As to conditions: cited from earlier work.
The next data set concerns arginine decarboxylase. The settings on record: cited from earlier work.
Another data set deals with adenosine deaminase. As to conditions: cited from earlier work.
The subject of data set [6] is S-Adenosylmethionine Decarboxylase (SAM-DC). The settings on record: cited from earlier work.
The next data set concerns lysosomal ADA. As to conditions: 0.2 mM; cited from earlier work.
For data set [7], the system named is RNA synthesis in Hela cells. As to conditions: cited from earlier work.
The subject of another data set is SAHH hydrolase. As to conditions: cited from earlier work.
Data set [8] relates to 28S rRNA, 18S rRNA and tRNA. The settings on record: NPA 10 μM; c^3 -NPA 10 μM; c^3 -Ari 100 μM; cited from earlier work.

Take `Nc1ncnc2c1ncn2[C@@H]1O[C@H](COP(=O)(O)NP(=O)(O)OP(=O)(O)O)[C@@H](O)[C@H]1O` [AMPNPP]: in the data set with SAM synthetase, the “effectiveness, fold versus AMPCPP” value is “about 1000 fold”; the “inhibition constant, fold less than the Km of ATP” value is recorded as 60 fold; the “substrate and inhibitor of SAM synthetase” value is “both a substrate for SAM synthetase and a potent inhibitor”.
For `CCOC(=O)/C=C\C(=O)OCC` [diethyl maleate], the depletion of glutathione entry with glutathione was “depleted liver and aortic glutathione”.
Regarding `N#Cc1cn([C@@H]2O[C@H](CO)[C@@H](O)[C@H]2O)c2ncnc(N)c12` [toyocamycin], the “maturation of rRNA” value with rRNA of S. cerevisiae was “inhibit the maturation of rRNA”. In addition, the “formation of mature rRNA” value in data set [1] was “inhibit the formation of mature 28S and 18”.
For `Nc1ncnc2c1nnn2[C@@H]1C[C@H](CO)[C@@H](O)[C@H]1O` [8-azaaristeromycin], in the data set on bovine liver SAHH, the inhibition (commonly the percentage by which the read-out fell short of the control) is 46%.
Turning to `CN(Cc1cnc2nc(N)nc(N)c2n1)c1ccc(C(=O)N[C@@H](CCC(=O)O)C(=O)O)cc1` [Methotrexate], the inhibition result in data set [2] was “potently inhibited”. For the same compound, the SAH metabolism result in data set [3] (cultured cells and patients) was “affects SAH metabolism”. Moreover, the methylation reactions entry in data set [3] (low concentrations, in vitro) is recorded as “interfere with specific methylation reactions”.
Take `Nc1ncnc2c1ncn2C[C@H](O)[C@H](O)C(=O)O` [L-eritadenine]: the “inactivation of SAH” value with SAH in hepatocytes was “inactivate SAH in hepatocytes”.
Turning to `COC(=O)C(N)(C=CCN)CF` (racemic) [DL-α-monofluoromethyldehydroornithine methylester], the negative-log Ki (pKi) (commonly −log10 of the Ki, conventionally taken in molar units) in [4] was 5.52.
Consider `NCC(O)CN` [1,3-diaminopropan-2-ol], for which the “growth of D. discoideum” value in the data set on Dictyostelium discoideum was “arrested in four hours”.
For `NCCCC(N)(C(=O)O)C(F)F` (centres unmarked) [DFMO, difluoromethylornithine], the ODC inhibition entry in data set [4] is on record as “irreversible inhibitor of ornithine decarboxylase”. In the data set on Trypanosomiasis (different dosage levels and modes of treatment), the clinical effectiveness result is “effective against Trypanosomiasis”. Also, in the data set with Trypanosomiasis (human, in vivo), the safety result was “safe and well tolerated and the side effects are reversible”.
On to `Nc1ncnc2nc[nH]c12` [adenine], for which the “inhibition of E. coli tRNA methylases” value in data set [5] is listed as “inhibitory to tRNA methylases isolated from E. coli”. The “inhibition of tRNA methylases” value in the data set with tRNA methylases is “gave inhibition that would be acceptable”.
With `COc1cc(Cc2cnc(N)nc2N)cc(OC)c1OC` [trimethoprim], the inhibition result in data set [2] is reported as “potently inhibited”.
On to `CCC[C@@H]1C[C@@H](C(=O)N[C@@H]([C@H]2O[C@H](SC)[C@H](O)[C@@H](O)[C@H]2O)[C@@H](C)O)N(C)C1` [Lincomycin], for which the MIC50 (in general, the lowest concentration that inhibits either 50% of growth or 50% of the strains tested, depending on the study) in the data set on Mycoplasma pneumoniae was 8 µg/mL (≈ 19.7 µM); in the data set with Staphylococcus aureus, 1 µg/mL (≈ 2.46 µM); in the data set on Mycoplasma hominis, 2 µg/mL (≈ 4.92 µM); in the data set with Ureaplasma urealyticum, ≥ 128 µg/mL. For the same compound, the MIC90 – broadly, an inhibitory concentration at the 90% level, which refers to growth in some studies and to a panel of isolates in others – was 32 µg/mL (≈ 78.7 µM) in the data set on Mycoplasma pneumoniae, 1 µg/mL (≈ 2.46 µM) in the data set on Staphylococcus aureus, 4 µg/mL (≈ 9.84 µM) with Mycoplasma hominis and ≥ 128 µg/mL with Ureaplasma urealyticum. Besides, the figures for the Range with Mycoplasma pneumoniae, with Staphylococcus aureus and with Mycoplasma hominis were 2-32, 0.5-512 and 0.5-16, respectively.
In the case of `Nc1ncnc2c1ncn2C[C@@H](O)[C@@H](O)C(=O)O` [D-eritadine], the “inactivation of SAH” value in the data set on SAH in hepatocytes was “inactivate SAH in hepatocytes”.
Take `C[C@](N)(CCCN)C(=O)O` [α-methylornithine]: the “growth of D. discoideum” value in the data set on Dictyostelium discoideum is reported as “arrested in four hours”.
As for `Nc1ncnc2c1ncn2C[C@H](O)[C@@H](O)C(=O)O` [L-threo-eritadenine], in the data set with SAH in hepatocytes, the “inactivation of SAH” value is “inactivate SAH in hepatocytes”.
Regarding `Nc1ncnc2c1ncn2[C@@H]1O[C@H](CO)[C@H](O)[C@H]1O` [xylosyladenine, 9-B-D-xylofuranosyladenine], in the data set on RNA methylation, the DNA methylation entry was “not inhibited”; the “formation of methyluridine, 2'-O-methylcytidine, 5-methyluridine and 5-methylcytidine in RNA” value is “reduced”; the “inhibition of RNA methylation” value is “marked inhibition of RNA methylation”.
As to `N=C(N)NCCCC(N)(C(=O)O)C(F)F` (racemic) [DFMA, difluoromethylarginine], the arginine decarboxylase inhibition result in the data set on arginine decarboxylase was “irreversible inhibitor of ADC”; in the data set with arginine decarboxylase (listed as DL-α-(difluoromethyl)arginine), “potent and irreversible inhibitor of bacterial ADC”.
For `Nc1ncnc2c1ncn2[C@@H]1O[C@H](CO)[C@@H](O)[C@H]1O` [adenosine], in data set [5], the “inhibition of E. coli tRNA methylases” value was “inhibitory to tRNA methylases isolated from E. coli”.
Turning to `CNc1ncnc2c1ncn2[C@@H]1C[C@H](CO)[C@@H](O)[C@H]1O` [N^6 -methylaristeromycin], the inhibition with bovine liver SAHH is recorded as 22%.
Take `OCC1NC=Nc2c1ncn2[C@@H]1O[C@H](CO)[C@@H](O)[C@H]1O` (some centres unmarked) [1,6-dihydro-6-hydroxy-methylpurine nucleoside]: the ADA inhibition result in the data set on adenosine deaminase is reported as “inhibitors of ADA”.
Take `CN(C/C=C\CN)C[C@H]1O[C@@H](n2cnc3c(N)ncnc32)[C@H](O)[C@@H]1O` [AbeAdo, 5'-{[(Z)-4-amino-2-butenyl]methylamino}-5'-deoxyadenosine]: the SAM-DC inhibition entry in [6] is on record as “powerful irreversible inhibitors of SAM-DC”.
On to `CCCCCC[C@H]([C@H](C)O)n1cnc2c(N)ncnc21` (relative stereo) [erythro-9-(2-hydroxy-3-nonyl)adenine], for which the ADA inhibition entry in the data set on adenosine deaminase was “inhibitors of ADA”. Moreover, in the data set with lysosomal ADA, the “inhibition of lysosomal ADA” value is recorded as > 97%.
Turning to `Nc1ncnc2c1ncn2[C@@H]1O[C@H](CO)C[C@H]1O` [Cordycepin, 3'-deoxyadenosine], the RNA synthesis entry in [7] (200 μg/ml) is reported as “totally inhibits RNA synthesis”. In [7], the “DNA and protein synthesis” value is given as “not affected”; the “synthesis of mature rRNA, ribosomal precursor 45S RNA and tRNA” value is “inhibits the synthesis of mature rRNA, ribosomal precursor 45S RNA and tRNA”. In addition, the “rRNA and tRNA syntheses” value in data set [7] (lower concentrations) is given as “selectively inhibited”.
With `CN(CCCNN)C[C@H]1O[C@@H](n2cnc3c(N)ncnc32)[C@H](O)[C@@H]1O` [MHZPA, 5'-deoxy-5'-[(3-hydrazinopropyl)methylamino]adenosine], in [6], the SAM-DC inhibition entry is on record as “powerful irreversible inhibitors of SAM-DC”.
For the compound `Nc1nc2c(ncn2[C@@H]2O[C@H](CO)[C@@H](O)[C@H]2O)c(=S)[nH]1` [6-thioguanosine], the “formation of mature rRNA” value in data set [1] is “inhibit the formation of mature 28S and 18”.
In the case of `Nc1nccc2c1ncn2[C@@H]1C[C@H](CO)[C@@H](O)[C@H]1O` [c^3 -Ari, 3-deazaaristeromycin], the “antiviral activity and cytotoxicity vs first generation” value with SAHH hydrolase was “retained antiviral activity and considerably lower cytotoxicity than their parent first generation inhibitors”. Besides, the “methylation of 28S rRNA, 18S rRNA and tRNA” value in data set [8] is “inhibit the methylation of 28S rRNA, 18S rRNA and tRNA”. In addition, the inhibition in the data set with bovine liver SAHH is 97%.
